Data as given in paper PMC8839660, “Structural Refinement of 2,4-Thiazolidinedione Derivatives as New Anticancer Agents Able to Modulate the BAG3 Protein” (Molecules, 2022).

Key:
[1] = test system: human cervical adenocarcinoma cell line (HeLa); test: MTT cell viability assay, HeLa; format: cell-based; conditions: 48 h, 5–50 µM; for IC50: Homo sapiens, HeLa, read-out: HeLa Cell Line IC50 ± SD
Protocol: (§1) Firstly, the antiproliferative activity of lead compound 1, 2 and 5–9 against selected human cell lines was assessed. No effect on human PHA (Phytohaemagglutinin)-stimulated proliferating non-tumor human cell line (PMBC) has been detected for compound 1 tested at different concentrations (10–50 μM) after 72 h of exposure. In more detail, all the synthesized compounds have been tested on human melanoma cancer A375 and HeLa cancer cell lines, which are known to overexpress BAG3 protein, by an MTT cell viability assay, using different concentrations (5–50 μM). The IC50 values have been calculated after 48 h of treatment with test compounds (Table 2).
(§2) Cell lines of human cervical carcinoma (HeLa) and human malignant melanoma (A375) were cultured in Dulbecco’s modified Eagle’s medium containing 10% fetal bovine serum, supplemented with 100 U/mL each of penicillin and streptomycin, and 2 mM/L glutamine and were grown at 37 °C under 5% CO2 air humidified atmosphere.
(§3) Cell viability was evaluated using a colorimetric assay based on MTT ((3-(4,5-dimethylthiazol-2-yl)-2,5-diphenyltetrazolium bromide)) assay. Cells were grown in 96-well tissue culture plates (3,5 × 10^3 cells/well) and after 24 h, were treated with different concentrations of 1, 2 and 5–9 (50, 25, 10, and 5 µM) and incubation was performed for 48 h at 37 °C in an atmosphere containing 5% CO2. At the end of treatment, the plates were centrifuged at 1200 rpm for 5 min, the medium was removed and 100 μL of MTT (1 mg/mL) were added to each well, and cells were incubated at 37 °C for the time necessary to allow the formation of purple formazan precipitate. The solution was then removed from each well, and the formazan crystals within the cells were dissolved with 100 μL of DMSO [31]. The optical density (OD) of each well was measured with a microplate spectrophotometer (Multiskan Spectrum Thermo Electron Corporation reader) (Thermo Fisher Scientific, Rome, Italy) equipped with a 620-nm filter. Cell mortality was calculated as: % mortality = 100 − [100 × (OD treated/OD control)] [32].

BAG3 domain (rBAG3BD) = target: T1, BAG3 domain (rBAG3BD) (Homo sapiens, UniProt O95817); test: SPR assay on isolated BAG3 BAG domain; conditions: for rBAG3BD KD ± SD: SPR, isolated BAG domain, 25 °C, n.b. = no binding
T1 sequence (O95817 421-498 limits assumed): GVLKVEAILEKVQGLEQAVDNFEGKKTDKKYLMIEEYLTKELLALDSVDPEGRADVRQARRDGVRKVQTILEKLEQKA
Protocol: (§10) A surface plasmon resonance (SPR) assay [18], using a recombinant BAG3 protein, was performed and, to explore the potential selectivity of our potential binders, the affinity for BAG4—the most closely BAG3 related protein—was also evaluated. Moreover, the binding affinity towards the BAG3BD domain was also assessed.
(§11) The SPR analysis were performed on Biacore 3000^TM equipped with a research-grade CM5 sensor chip (GE Healthcare^TM, Milan, Italy). Human recombinant BAG3 (rBAG3) protein was purchased from MyBioSource© (San Diego, CA, USA), BAG3 domain (rBAG3BD) was purchased from ARETA International S.r.l. […] The proteins were coupled to the surface of a CM5 sensor chip using standard amine-coupling protocols, according to the manufacturer’s instructions. Three separates recombinant rBAG proteins surfaces and one unmodified reference surface were prepared for simultaneous analyses. rBAG proteins (BAG3 and BAG4) and rBAG3BD (100 µg mL^−1 in 10 mM CH3COONa, pH 4.5) were immobilized on the sensor chip surface at a flow rate of 5 µL min^−1 to obtain densities of 5–9 kRU. […] For each molecule, a six-point concentration series was conducted in triplicate (0-0.25-1-10-20-100 µM). SPR (Surface Plasmon Resonance) experiments were performed at 25 °C, using a flow rate of 10 µL min^−1, with 60-s monitoring of association and 300-s monitoring of dissociation. Sensorgram elaborations were performed using the BIAevaluation software (GE Healthcare^TM, Milan, Italy). provided by GE Healthcare^TM. Simple interactions were suitably fitted to a single-site bimolecular interaction model (A + B = AB), yielding a single KD.

[2] = target: T2, human recombinant BAG4 protein (Homo sapiens, UniProt O95429); test: SPR assay on BAG4 (selectivity); conditions: 25 °C, n.b. = no binding
T2 sequence (O95429 1-457): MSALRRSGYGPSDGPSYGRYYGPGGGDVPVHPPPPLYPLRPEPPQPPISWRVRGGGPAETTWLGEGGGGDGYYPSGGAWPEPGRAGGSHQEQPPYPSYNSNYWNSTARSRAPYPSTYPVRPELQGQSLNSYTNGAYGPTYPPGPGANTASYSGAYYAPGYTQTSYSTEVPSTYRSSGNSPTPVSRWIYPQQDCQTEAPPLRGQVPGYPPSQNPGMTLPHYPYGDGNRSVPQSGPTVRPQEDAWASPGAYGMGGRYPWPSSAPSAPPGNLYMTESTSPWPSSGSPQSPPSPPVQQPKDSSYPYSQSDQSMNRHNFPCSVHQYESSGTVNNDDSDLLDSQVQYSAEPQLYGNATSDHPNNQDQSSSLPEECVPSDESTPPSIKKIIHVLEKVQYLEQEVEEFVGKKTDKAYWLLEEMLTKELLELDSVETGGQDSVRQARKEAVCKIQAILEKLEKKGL
Protocol: as §10, §11

PC3 = test system: PC3; set-up: method as in PMID 29926854; conditions: PC3 cells; read-out: antiproliferative activity IC50, PC3; cited from earlier work
A375 cells = test: Apoptosis and cell cycle analysis by PI staining and flow cytometry, A375; format: cell-based, human; conditions: 5-10-25 μM, 48 h
Protocol: (§4) The cells were incubated for 48 h with 1 and 6 at concentrations 5-10-25μM.
(§5) The effect of compound 1 and 6 on cell death was analyzed by propidium iodide (PI) (Merck, Darmstadt, Germany) incorporation in permeabilized cells and flow cytometry. Briefly, cells were plated at a density of 2 × 10^4 cells/well in a 24-well plate. After 24 h, 1 and 6 (25-10-5 μM) were added for 48 h. Cells were washed twice with PBS and incubated in 500μL of a solution containing 0.1% Triton X-100, 0.1% sodium citrate, and […] propidium iodide (PI), at 4 °C for 30 min in the dark. The PI-stained cells were subsequently analyzed by flow cytometry by FACSCalibur flow cytometer (Becton Dickinson, Milan, Italy) using CellQuest software (4.0, Becton Dickinson, North Ryde, NSW, Australia). Results are expressed as the percentage of cells in the hypodiploid region. Cellular debris were excluded from the analysis by raising the forward scatter threshold and the DNA content of the nuclei was registered on a logarithmic scale. Cell cycle profiles were evaluated by DNA staining with a PI solution using a flow cytometer. Results from 5000 events per sample were collected, and the relative percentage of the cells in G0/G1, S, G2/M, and sub-G0/G1 phases of the cell cycle was determined using the ModFit LT version 3.3 analysis software (BD Biosciences, North Ryde, NSW, Australia).
(§6) Figure 3 Cell cycle analysis: (a) DNA content and (b) hypodiploid nuclei, with propidium iodide staining, were evaluated by flow cytometric assay. A375 cells were treated respectively with 1 or 6 (both 5-10-25 μM) for 48 h. Results are expressed as mean ± S.E.M. of three independent experiments, each performed in duplicate. Data were analyzed by Student’s t-test. * p < 0.05 and ** p < 0.005 vs. non-treated.

A549 = test system: A549; set-up: method as in PMID 29926854; conditions: A549 cells; read-out: antiproliferative activity IC50, A549; cited from earlier work
[3] = test system: human PHA (Phytohaemagglutinin)-stimulated proliferating non-tumor human cell line (PMBC); set-up: method as in PMID 29926854; conditions: 10–50 μM, 72 h of exposure; cited from earlier work
[4] = test system: human melanoma cell line (A375); test: MTT cell viability assay, A375; format: cell-based; conditions: 5–50 µM; for IC50: Homo sapiens, A-375, 48 h, read-out: A375 Cell Line IC50 ± SD; for A375 Cell Line IC50 ± SD: 48 h
Protocol: as §1, §2, §3

HeLa cells = test: Apoptosis and cell cycle analysis by PI staining and flow cytometry, HeLa; format: cell-based, human; conditions: 5-10-25 μM, 48 h
Protocol: as §4, §5
as §6, with “4” for “3”, “HeLa” for “A375”, “treated” for “treated respectively”, “with” for “with 1 or”, “(5-10-25” for “(both 5-10-25”, “experiments” for “experiments,”

[5] = target: Human recombinant BAG3 (rBAG3) protein full length (Homo sapiens, UniProt O95817); test: SPR assay on recombinant full-length BAG3; conditions: for rBAG3 KD ± SD: SPR, full-length protein, 25 °C, n.b. = no binding
Protocol: as §10, §11

caspase 9 = test: Caspase 9 level by flow cytometry in HeLa cells; format: cell-based, human; conditions: 5-10-25 μM, 48 h
Protocol: (§7) Furthermore, the expression of caspases, the key mediators of programmed cells death, was examined in HeLa cells after the treatment with compound 6.
(§8) Cells were plated into 12-well plated (2 × 10^4 cells/well) and after 24 h were treated with 6 (50-25-10-5 µM) for 48 h to assess caspase 3 and caspase 9 levels. Cells were collected, washed with PBS, then incubated in fixing buffer (containing 4% formaldehyde, 0.1% NaN3, and 2% FBS in PBS) for 20 min and then permeabilized with fix perm solution (fixing buffer containing 0.1% Triton X) for 30 min. Afterward, anti-caspase 3 or anti-caspase 9 antibodies were added for a further 30 min. Cells were then incubated with anti-rabbit Texas Red antibody as a secondary antibody for 1 h at 4 °C. Cell fluorescence was evaluated using a fluorescence-activated cell sorter (FACSscan; Becton Dickinson, Milan, Italy) and analyzed with the Cell Quest software (4.0, Becton Dickinson, North Ryde, NSW, Australia). Data were shown as a percentage of positive cells.
(§9) Figure 5 (a) Caspase 3 and (b) caspase 9 expressions were detected by flow cytometric analysis. HeLa cells were treated with 6 (5-10-25 μM) for 48 h. Results are expressed as mean ± S.E.M. from at least three independent experiments each performed in duplicate. Data were analyzed by Student’s t-test. *** p < 0.0001 vs. non-treated.

caspase 3 = test: Caspase 3 level by flow cytometry in HeLa cells; format: cell-based, human; conditions: 5-10-25 μM, 48 h
Protocol: as §7, §8, §9

BAG3 = BAG3 expression by Western blotting in HeLa cells; format: cell-based, human; conditions: 5-10-25 μM, 48 h
Protocol: Figure 6 HeLa cells were treated with 6 (5-10-25 μM) for 48 h. BAG3 expression was detected by Western blotting. Tubulin protein expression was used as a loading control. Results are expressed as mean ± S.E.M. from at least three independent experiments each performed in duplicate. Data were analyzed by Student’s t test vs. non-treated.

Chain of Human recombinant BAG3 (rBAG3) protein full length (O95817 whole entry): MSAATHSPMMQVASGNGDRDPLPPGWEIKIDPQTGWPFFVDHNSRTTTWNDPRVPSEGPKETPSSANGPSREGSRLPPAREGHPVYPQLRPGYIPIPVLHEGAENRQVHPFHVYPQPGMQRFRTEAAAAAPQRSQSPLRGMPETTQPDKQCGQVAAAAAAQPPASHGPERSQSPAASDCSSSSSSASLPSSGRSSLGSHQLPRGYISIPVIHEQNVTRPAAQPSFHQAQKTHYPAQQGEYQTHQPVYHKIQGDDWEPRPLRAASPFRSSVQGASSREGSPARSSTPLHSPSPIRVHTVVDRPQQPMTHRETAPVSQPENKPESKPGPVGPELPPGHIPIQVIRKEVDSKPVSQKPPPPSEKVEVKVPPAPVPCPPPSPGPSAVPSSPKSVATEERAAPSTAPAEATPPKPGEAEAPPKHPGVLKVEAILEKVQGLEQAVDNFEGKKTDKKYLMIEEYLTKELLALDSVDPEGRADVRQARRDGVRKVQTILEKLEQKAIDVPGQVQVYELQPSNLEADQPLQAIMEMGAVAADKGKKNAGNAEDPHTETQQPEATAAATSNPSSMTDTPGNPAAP

Row | SMILES | IC50 [1] [µM] | Kd (BAG3 domain (rBAG3BD)) [µM] | rBAG4 KD ± SD [2] | IC50 [4] [µM] | Kd [5] [µM] | HeLa Cell Line IC50 ± SD [1] | A375 Cell Line IC50 ± SD [4] | other results
1 | CCOC(=O)CN1C(=O)S/C(=C\c2ccc(O)c(O)c2)C1=O [Compound 1, reference compound] | > 50 | 0.0064 ± 0.0022 | n.b. ^a | 15.1 ± 0.9 | 0.0111 ± 0.0039 | – | – | IC50 (PC3): 48.1 ± 1.5 µM; apoptotic response (hypodiploid nuclei), A375 (A375 cells): dose-dependent increase in hypodiploid nuclei; cell cycle distribution (G2 phase), A375 (A375 cells): accumulation in the G2 phase; IC50 (A549): 32.3 ± 0.9 µM; effect on PHA-stimulated proliferating non-tumor cells [3]: No effect; cell cycle distribution (G2 phase), HeLa (HeLa cells): no evident effect
2 | COC(=O)CN1C(=O)S/C(=C\c2ccc(O)c(O)c2)C1=O [Compound 2, (Z)-methyl 2-(5-(3,4-dihydroxybenzylidene)-2,4-dioxothiazolidin-3-yl) acetate] | 27.3 ± 1.2 | – | n.b. | > 50 | 0.115 ± 0.0014 | – | – | rBAG3BD KD ± SD (BAG3 domain (rBAG3BD)): n.b.
3 | CCOC(=O)CN1C(=O)S/C(=C\c2cc(O)cc(O)c2)C1=O [Compound 3, (Z)-ethyl 2-(5-(3,5-dihydroxybenzylidene)-2,4-dioxothiazolidin-3-yl) acetate] | – | – | – | – | – | – | – | rBAG3 KD ± SD [5]: n.b.
4 | COC(=O)CN1C(=O)S/C(=C\c2cc(O)cc(O)c2)C1=O [Compound 4, (Z)-methyl 2-(5-(3,5-dihydroxybenzylidene)-2,4-dioxothiazolidin-3-yl) acetate] | – | – | – | – | – | – | – | rBAG3 KD ± SD [5]: n.b.
5 | O=C(CN1C(=O)S/C(=C\c2cc(O)cc(O)c2)C1=O)N1CCOCC1 [Compound 5, (Z)-5-(3,5-dihydroxybenzylidene)-3-(2-morpholino-2-oxoethyl) thiazolidine-2,4-dione] | 30 ± 1.3 | – | n.b. | 25.5 ± 1.1 | – | micromolar range | micromolar range | –
6 | CCOC(=O)CN1C(=O)S/C(=C\c2ccc(N(CCO)CCO)cc2)C1=O [Compound 6, (Z)-ethyl 2-(5-(4-(bis(2-hydroxyethyl)amino)benzylidene)-2,4-dioxothiazolidin-3-yl) acetate] | 18.7 ± 0.9 | 0.0276 ± 0.0019 | n.b. | 19.4 ± 1.2 | 0.0063 ± 0.0003 | micromolar range | micromolar range | caspase 9 levels (caspase 9): significant and dose-dependent activation; caspase 3 levels (caspase 3): significant and dose-dependent activation; apoptotic response (hypodiploid nuclei), A375 (A375 cells): significant increase of the apoptotic response in a dose-dependent manner; cell cycle distribution (G2 phase), A375 (A375 cells): dose-dependent accumulation in the G2 phase; apoptotic response (hypodiploid nuclei), HeLa (HeLa cells): significant increase of the apoptotic response in a dose-dependent manner; cell cycle distribution (G2 phase), HeLa (HeLa cells): dose-dependent accumulation in the G2 phase; BAG3 expression (BAG3): expression decrease of BAG3
7 | COC(=O)CN1C(=O)S/C(=C\c2ccc(N(CCO)CCO)cc2)C1=O [Compound 7, (Z)-methyl 2-(5-(4-(bis(2-hydroxyethyl)amino)benzylidene)-2,4-dioxothiazolidin-3-yl) acetate] | 49.4 ± 1.4 | 0.0457 ± 0.0017 | n.b. | > 50 | 0.0531 ± 0.0091 | – | – | –
8 | CCOC(=O)CN1C(=O)S/C(=C\c2ccc(-c3ccc(C#N)cc3)cn2)C1=O [Compound 8, (Z)-ethyl 2-(5-((5-(4-cyanophenyl)pyridin-2-yl)methylene)-2,4-dioxothiazolidin-3-yl) acetate] | 25.9 ± 0.8 | – | n.b. | 23.2 ± 1 | 0.144 ± 0.0015 | micromolar range | micromolar range | rBAG3BD KD ± SD (BAG3 domain (rBAG3BD)): n.b.
9 | COC(=O)CN1C(=O)S/C(=C\c2ccc(-c3ccc(C#N)cc3)cn2)C1=O [Compound 9, (Z)-methyl 2-(5-((5-(4-cyanophenyl)pyridin-2-yl)methylene)-2,4-dioxothiazolidin-3-yl) acetate] | 31.3 ± 1 | 0.0224 ± 0.0007 | n.b. | 28.4 ± 0.9 | 0.0247 ± 0.0018 | micromolar range | micromolar range | –
